Measured values as given in patent US20080219922A1, “Alzheimer's Disease Imaging Agents” (priority 2005, published 2008).

Assays:
[1] = Partition coefficient determination (1-octanol/phosphate buffer pH 7.4); assay type: physicochemical; settings: 1-octanol / 0.02 M sodium phosphate buffer pH 7.4
Experimental: Measurement of distribution coefficient of [^18F]tracer was performed based on the method described by Wilson et al. [Labelled Compd. Radiopharm., 42:1277-1288 (1999)] using 0.02 M sodium phosphate buffer at pH 7.4 and 1-octanol. Basically, the test tubes containing ˜20 μCi of the radiotracer and 2 mL each of 1-octanol and phosphate buffer were vortexed for 10 min at room temperature and then centrifuged for 5 min. Samples (0.5 mL) from 1-octanol and buffer layers were counted in a Packard Cobra II auto-gamma counter (Perkin-Elmer, Downers Grove, Ill.) and decay corrected. The measurement was repeated three times. The log P7.4 value was calculated as follows: log P7.4 log [counts in octanol phase/counts in buffer phase].

[2] = rhesus monkey, in vivo, iv
Experimental: In order to assess brain uptake and clearance, FZ 202-1 and FZ 202-2 were radiolabeled with fluorine-18. The kinetics of fluorine-18 labeled FZ 202-1 and FZ 202-2 in brain were determined by microPET in rhesus monkeys.
PET study was performed in a male rhesus monkey weighing 6-10 kg using a Concorde MicroPET P4 imaging system. The animal was initially anesthetized with an intramuscular injection of Telazol (3 mg/kg), intubated, and then maintained on a 1% isoflurane/5% oxygen gas mixture throughout the imaging session. The monkey was placed in the PET scanner and the head was immobilized. Blood pressure, heart and respiratory rates, and expired CO2 and oxygen saturation levels were monitored continuously during the PET study. A transmission scan was obtained with a germanium-68 source prior to the PET study for attenuation correction of the emission data. Brain emission scans were performed following the intravenous administration of [^18F]tracer (5 mCi). Serial dynamic transaxial images were acquired for a total of 120 min and then binned for analysis. Emission data acquired were subject to iterative reconstruction (OSEM, two iterations, 40 subsets) with no pre- or postfiltering to provide images with an isotropic resolution of 3 mm fwhm. […]

[3] = biological target: T1, amyloid plaques in sections from postmortem AD brains (Homo sapiens, UniProt P05067); test: In vitro film autoradiography of postmortem AD brain sections; assay type: binding
T1 construct: abundant amyloid plaques or deposits composed of amyloid-β(Aβ) peptides; from tissue; host or cells: postmortem brain tissue sections of frontal lobe from an AD patient
Excerpt: FZ 202-1 in postmortem brain tissue sections of frontal lobe from an AD patient. A: AD tissue+[^18F] FZ 202-1. B: [^18F] […] C: […] [^18F]

T1 sequence (P05067 672-713 limits assumed): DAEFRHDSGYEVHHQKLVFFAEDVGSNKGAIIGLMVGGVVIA

Log P7.4 [1]	radioactivity ratios of peak-to-115 min in cerebellum, frontal cortex and subcortical white matter ([2]; male)	bone uptake of radioactivity in the skull [2]	specific binding after pretreatment with nonradioactive PIB and IMPY ([3]; AD specimen, FIG. 3: +1 mM PIB, +10 mM IMPY)	SMILES	specific binding to amyloid plaques (plaque labeling) ([3]; postmortem AD brain sections, frontal lobe, film autoradiography)
3.58				CN(C)c1ccc(-c2cn3cc([125I])ccc3n2)cc1 [IMPY, reference compound]	
2.69				Cc1cc2nc(-c3ccc(N(C)C)cc3)cn2nc1F [FZ 202-1]	
2.83				Cc1cc(F)nn2cc(-c3ccc(N(C)C)cc3)nc12 [FZ 202-2]	
	2.5-4.9	No bone uptake	eliminated	Cc1cc2nc(-c3ccc(N(C)C)cc3)cn2nc1F [[^18F]-FZ 202-1]	clearly observed in cortical gray matter, but not in the white matter
